ChEMBL document CHEMBL3885861, “Open TG-GATES”

Species on record: Rattus norvegicus
Experiment: Open TG-GATES - Regimen: Single
Format: toxicity, organism-based, Sprague-Dawley
Set-up: regimen Single, gender Male, age 6 weeks
Conditions: in vivo, sc, 0.2 mg/kg, route subcutaneous injection, dose 200 ug/Kg, dose level Middle; for APTT / Bas / Eos / Fbg / Hb / Ht / Lym / MCH / MCHC / MCV / Mono / Neu / PT / Plat / RBC / Ret / WBC: tissue Blood; for KIDNEY_L / KIDNEY_R / KIDNEY_TOTAL: tissue Kidney; for LIVER: tissue Liver; for A/G / ALP / ALT / AST / BUN / CRE / Ca / Cl / DBIL / GLC / IP / K / LDH / Na / PL / RALB / TBIL / TC / TG / TP / gamma-GTP: tissue Plasma

## CC(=O)O.N=C(N)NCCC[C@@H](NC(=O)[C@@H]1CCCN1C(=O)[C@@H]1CSSCCC(=O)N[C@@H](Cc2ccc(O)cc2)C(=O)N[C@@H](Cc2ccccc2)C(=O)N[C@@H](CCC(N)=O)C(=O)N[C@@H](CC(N)=O)C(=O)N1)C(=O)NCC(N)=O [DESMOPRESSIN ACETATE]
3 h
  TERMINAL_BW: 206.2 g
  APTT: 17.6 s
  Bas: 0%
  Eos: 1%
  Fbg: 256.3 mg/dL
  Hb: 12.8 g/dL
  Ht: 39.6%
  Lym: 71.8%
  MCH: 21.1 pg
  MCHC: 32.3%
  MCV: 65.1 fL
  Mono: 7.6%
  Neu: 19.6%
  PT: 12.2 s
  Plat: 112.4 x10_4/uL
  RBC: 609.4 x10_4/ul
  Ret: 8.8%
  WBC: 77 x10_2/uL
  KIDNEY_L: 0.9 g
  KIDNEY_R: 1 g
  KIDNEY_TOTAL: 1.9 g
  LIVER: 9.9 g
  A/G: 2
  ALP: 1405.8 IU/L
  ALT: 44.4 IU/L
  AST: 81.2 IU/L
  BUN: 23.8 mg/dL
  CRE: 0.4 mg/dL
  Ca: 11.8 mg/dL
  Cl: 101 meq/L
  DBIL: 0.012 mg/dL
  GLC: 205.6 mg/dL
  IP: 10.8 mg/dL
  K: 4.6 meq/L
  LDH: 272.6 IU/L
  Na: 134.6 meq/L
  PL: 145.8 mg/dL
  RALB: 3.8 g/dL
  TBIL: 0.05 mg/dL
  TC: 77 mg/dL
  TG: 99.8 mg/dL
  TP: 5.7 g/dL
  gamma-GTP: 0.8 IU/L
6 h
  TERMINAL_BW: 205.6 g
  APTT: 18.4 s
  Bas: 0%
  Eos: 1.6%
  Fbg: 244.6 mg/dL
  Hb: 13 g/dL
  Ht: 39.7%
  Lym: 71.8%
  MCH: 21.4 pg
  MCHC: 32.8%
  MCV: 65.3 fL
  Mono: 8.8%
  Neu: 18%
  PT: 12.5 s
  Plat: 124.8 x10_4/uL
  RBC: 609.4 x10_4/ul
  Ret: 8.7%
  WBC: 102.8 x10_2/uL
  KIDNEY_L: 1 g
  KIDNEY_R: 1 g
  KIDNEY_TOTAL: 2 g
  LIVER: 9.6 g
  A/G: 2.1
  ALP: 1316 IU/L
  ALT: 34.8 IU/L
  AST: 63.2 IU/L
  BUN: 27.4 mg/dL
  CRE: 0.3 mg/dL
  Ca: 10.9 mg/dL
  Cl: 101 meq/L
  DBIL: 0.016 mg/dL
  GLC: 200.6 mg/dL
  IP: 10.3 mg/dL
  K: 4.6 meq/L
  LDH: 127.6 IU/L
  Na: 135.4 meq/L
  PL: 155.6 mg/dL
  RALB: 3.7 g/dL
  TBIL: 0.064 mg/dL
  TC: 84.2 mg/dL
  TG: 76.2 mg/dL
  TP: 5.5 g/dL
  gamma-GTP: 1 IU/L
9 h
  TERMINAL_BW: 199.6 g
  APTT: 17.9 s
  Bas: 0%
  Eos: 1.2%
  Fbg: 239.4 mg/dL
  Hb: 13.3 g/dL
  Ht: 41%
  Lym: 74.4%
  MCH: 21.4 pg
  MCHC: 32.4%
  MCV: 66.2 fL
  Mono: 7.4%
  Neu: 17%
  PT: 12.5 s
  Plat: 112.4 x10_4/uL
  RBC: 620 x10_4/ul
  Ret: 9.2%
  WBC: 93.8 x10_2/uL
  KIDNEY_L: 1 g
  KIDNEY_R: 1 g
  KIDNEY_TOTAL: 2.1 g
  LIVER: 8.4 g
  A/G: 2
  ALP: 1325.8 IU/L
  ALT: 31 IU/L
  AST: 60.4 IU/L
  BUN: 28.4 mg/dL
  CRE: 0.3 mg/dL
  Ca: 11.2 mg/dL
  Cl: 102.6 meq/L
  DBIL: 0.016 mg/dL
  GLC: 195.6 mg/dL
  IP: 10.6 mg/dL
  K: 5.4 meq/L
  LDH: 104.4 IU/L
  Na: 135.4 meq/L
  PL: 144 mg/dL
  RALB: 3.7 g/dL
  TBIL: 0.068 mg/dL
  TC: 84 mg/dL
  TG: 50.2 mg/dL
  TP: 5.5 g/dL
  gamma-GTP: 0.8 IU/L
24 h
  TERMINAL_BW: 218.4 g
  APTT: 16.7 s
  Bas: 0%
  Eos: 1%
  Fbg: 245.4 mg/dL
  Hb: 12.6 g/dL
  Ht: 38.9%
  Lym: 77.4%
  MCH: 21.1 pg
  MCHC: 32.4%
  MCV: 65.3 fL
  Mono: 6.4%
  Neu: 15%
  PT: 12.3 s
  Plat: 123 x10_4/uL
  RBC: 596.6 x10_4/ul
  Ret: 10.6%
  WBC: 103.4 x10_2/uL
  KIDNEY_L: 1 g
  KIDNEY_R: 1 g
  KIDNEY_TOTAL: 2 g
  LIVER: 10.2 g
  A/G: 2
  ALP: 1597.6 IU/L
  ALT: 40.2 IU/L
  AST: 69.8 IU/L
  BUN: 19.8 mg/dL
  CRE: 0.4 mg/dL
  Ca: 11.1 mg/dL
  Cl: 103.6 meq/L
  DBIL: 0 mg/dL
  GLC: 197.4 mg/dL
  IP: 8.5 mg/dL
  K: 5.3 meq/L
  LDH: 156.4 IU/L
  Na: 137.2 meq/L
  PL: 157 mg/dL
  RALB: 3.6 g/dL
  TBIL: 0.022 mg/dL
  TC: 90.6 mg/dL
  TG: 93 mg/dL
  TP: 5.5 g/dL
  gamma-GTP: 1.8 IU/L
